Each block holds one compound with its values, some of them ahead of it.
What was measured:
Format in all cases: binding
[1] = molecular target: T1, 5,10-methylenetetrahydrofolate reductase (MTHFR) (Homo sapiens, UniProt P42898); assay: cryo-EM structure at […] Å (SAM-bound state)
T1 construct: MTHFRFL aa 1–656

[2] = molecular target: T1, 5,10-methylenetetrahydrofolate reductase (MTHFR); assay: ITC; cryo-EM structure at […] Å; DSF; HPLC activity assay
[3] = molecular target: T1, 5,10-methylenetetrahydrofolate reductase (MTHFR); assay: ITC; cryo-EM structures at […] and […] Å

T1 sequence (P42898 whole entry, the tested form may be a part): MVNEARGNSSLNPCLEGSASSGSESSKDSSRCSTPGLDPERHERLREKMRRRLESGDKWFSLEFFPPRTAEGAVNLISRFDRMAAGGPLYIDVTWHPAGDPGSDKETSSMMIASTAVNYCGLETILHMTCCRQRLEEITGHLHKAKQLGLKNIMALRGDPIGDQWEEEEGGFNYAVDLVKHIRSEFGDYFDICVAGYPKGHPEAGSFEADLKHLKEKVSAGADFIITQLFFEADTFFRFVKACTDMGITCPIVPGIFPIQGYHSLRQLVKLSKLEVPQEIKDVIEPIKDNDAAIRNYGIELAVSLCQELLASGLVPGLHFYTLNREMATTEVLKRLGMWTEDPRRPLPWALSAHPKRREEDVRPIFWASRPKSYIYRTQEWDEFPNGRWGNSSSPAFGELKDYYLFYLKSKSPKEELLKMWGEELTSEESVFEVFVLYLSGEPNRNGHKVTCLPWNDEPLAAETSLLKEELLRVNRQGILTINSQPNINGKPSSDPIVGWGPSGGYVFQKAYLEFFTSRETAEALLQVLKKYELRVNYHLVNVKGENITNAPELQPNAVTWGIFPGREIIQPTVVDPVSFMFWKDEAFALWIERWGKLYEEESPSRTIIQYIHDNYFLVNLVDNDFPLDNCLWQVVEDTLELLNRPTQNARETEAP

Structure (SMILES): Cc1cc2nc3c(=O)[nH]c(=O)nc-3n(C[C@H](O)[C@H](O)[C@H](O)COP(=O)(O)OP(=O)(O)OC[C@H]3O[C@@H](n4cnc5c(N)ncnc54)[C@H](O)[C@@H]3O)c2cc1C [FAD, flavin adenine dinucleotide]
cryo-EM structure at 2.9 Å (SAM-bound state) [1]: FAD was found in both CD active sites of the homodimer (Fig. 2c) with clear electron densities

Kd [2]: 860 to 990 nM
Structure (SMILES): C[S+](CC[C@H](N)C(=O)[O-])C[C@H]1O[C@@H](n2cnc3c(N)ncnc32)[C@H](O)[C@@H]1O (stereo partly drawn) [SAM, S-adenosyl-L-methionine]

Kd [3]: 380 to 390 nM
Structure (SMILES): Nc1ncnc2c1ncn2[C@@H]1O[C@H](CSCC[C@H](N)C(=O)O)[C@@H](O)[C@H]1O [SAH, S-adenosyl-L-homocysteine]

— publication PMC11018872, “Dynamic inter-domain transformations mediate the allosteric regulation of human 5, 10-methylenetetrahydrofolate reductase” (Nature Communications, 2024)
